Results published in patent publication US12577252B2, “Drug for the treatment of diseases caused by bacteria” (priority 2020, dated 2026).
Each block holds one molecule with its values, some of them ahead of it.

Legend:
[1] = test system: S. aureus ATCC 29213; test: MIC by serial dilution (CLSI), S. aureus ATCC 29213; format: cell-based, Staphylococcus aureus
[2] = test system: S pyogenes; test: MIC by serial dilution (CLSI), firmicutes bacteria; format: cell-based, Streptococcus pyogenes; settings: fresh clinical isolate
Procedure: (§1) Determination of the antimicrobial activity of substances was carried out on dense and liquid nutrient media. To assess the minimum inhibitory concentration (MIC), the serial dilution method was used, according to the recommendations of CLSI (Clinical Laboratories and Standards Institute, formerly National Committee for Clinical Laboratory Standards) (Clinical Laboratories and Standards Institute. Methods for Dilution Antimicrobial Susceptibility Tests for Bacteria That Grow Aerobically; Approved Standard—Seventh Edition Document M7-A7 CLSI, Wayne, Pa., 2006; Clinical Laboratories and Standards Institute).
(§2) The assessment of the antimicrobial activity of substances against firmicute bacteria was performed on fresh clinical isolates of strains of Streptococcus pyogenes, Streptococcus mitis, Bacillus subtilis, Bacillus cereus, Corynebacterium ulcerans, Micrococcus luteus.

[3] = test system: S. mitis; test: MIC by serial dilution (CLSI), firmicutes bacteria; format: cell-based, Streptococcus mitis; settings: fresh clinical isolate
Procedure: as §1, §2

[4] = test system: B. subtilis; test: MIC by serial dilution (CLSI), firmicutes bacteria; format: cell-based, Bacillus subtilis; settings: fresh clinical isolate
Procedure: as §1, §2

[5] = test system: B. cereus; test: MIC by serial dilution (CLSI), firmicutes bacteria; format: cell-based, Bacillus cereus; settings: fresh clinical isolate
Procedure: as §1, §2

[6] = test system: L. monocytogenes; test: MIC by serial dilution (CLSI), firmicutes bacteria; format: cell-based
[7] = test system: C. ulcerans; test: MIC by serial dilution (CLSI), firmicutes bacteria; format: cell-based, Corynebacterium ulcerans; settings: fresh clinical isolate
Procedure: as §1, §2

[8] = test system: M. lutteus; test: MIC by serial dilution (CLSI), firmicutes bacteria; format: cell-based, Micrococcus luteus; settings: fresh clinical isolate
Procedure: as §1, §2

[9] = test system: Escherichia coli ATCC29592; test: MIC, gracilicutes and wall-less bacteria; format: cell-based; settings: E. coli ATCC29592
Procedure: as §1, with “Institute). The study of the effect on strains was performed on fresh clinical isolates of Haemophilus influenzae, Neisseria meningitides, Ureaplasma urealyticum strains, as well as on the Escherichia coli ATCC29592 strain.” for “Institute).”

[10] = test system: H. influenzae; test: MIC, gracilicutes and wall-less bacteria; format: cell-based, Haemophilus influenzae; settings: fresh clinical isolate, Table 2
Procedure: as §1, with “Institute). The study of the effect on strains was performed on fresh clinical isolates of Haemophilus influenzae, Neisseria meningitides, Ureaplasma urealyticum strains, as well as on the Escherichia coli ATCC29592 strain.” for “Institute).”

[11] = test system: N. meningitides; test: MIC, gracilicutes and wall-less bacteria; format: cell-based, Neisseria meningitides; settings: fresh clinical isolate
Procedure: as §1, with “Institute). The study of the effect on strains was performed on fresh clinical isolates of Haemophilus influenzae, Neisseria meningitides, Ureaplasma urealyticum strains, as well as on the Escherichia coli ATCC29592 strain.” for “Institute).”

[12] = test system: U. urealyticum; test: MIC, gracilicutes and wall-less bacteria; format: cell-based, Ureaplasma urealyticum; settings: fresh clinical isolate
Procedure: as §1, with “Institute). The study of the effect on strains was performed on fresh clinical isolates of Haemophilus influenzae, Neisseria meningitides, Ureaplasma urealyticum strains, as well as on the Escherichia coli ATCC29592 strain.” for “Institute).”

[13] = test system: H. influenzae; test: MIC of 1a and its combinations with antimicrobials, serial dilutions; format: cell-based, Haemophilus influenzae; settings: liquid nutrient medium, substance alone
Procedure: We used a strain of H. influenzae grown on a liquid nutrient medium. The minimum inhibitory concentration was determined by the method of serial dilutions.

[14] = test system: S. aureus; test: Clinical treatment of tonsillitis, eradication of the pathogen; format: in vivo, Staphylococcus aureus; settings: for Eradication, %: S. aureus tonsillitis patients
Procedure: (§3) This pathology was chosen by us as one of the above lists to confirm the effectiveness and practical applicability of the claimed compound. The study was performed on two groups of patients, totaling 138 people, who received the drug enterally twice a day at doses from 500 mg to 2000 mg. The compound was administered as a pharmaceutical composition containing Compound 1a in acetate form in an isotonic solution of a pharmaceutically acceptable sodium chloride carrier.

[15] = test system: S. pyogenes; test: as above; format: in vivo, Streptococcus pyogenes; settings: for Eradication, %: S. pyogenes tonsillitis patients
Procedure: as §3

[16] = test system: S. aureus ANCC29213 biofilms; test: Survival of bacteria in biofilms (CFU count); format: cell-based, Staphylococcus aureus; settings: 10 μg/ml; for Number of CFU: 24 h biofilm, incubated 24 hours at 37° C.
Procedure: S. aureus ANCC29213 bacteria were grown in a 24-well plateau in LB medium for 24 hours at 37° C. After that, Compound 1a and lincomycin (8 wells for each preparation and control without preparations) were added to the wells at final concentrations of 10 μg/ml and incubated for 24 hours at 37° C. After incubation, the medium was removed, the biofilms were washed with a sterile solution of isotonic sodium chloride, the biofilms were removed from the bottom of the wells, resuspended in isotonic sodium chloride solution, and the number of colony forming units (CFU) was determined by the method of serial dilutions.

[17] = test system: Staphylococcus aureus ATCC 38591; test: Acute generalized infection in C57BL6 mice, death of mice; format: in vivo; settings: 10 mice
Procedure: To study the chemotherapeutic efficacy, a model of acute generalized infection in small animals was used. C57BL6 mice were intraperitoneally infected with Staphylococcus aureus ATCC 38591 at a dose of 1×10^8 microbial cells. The infectious dose was established in preliminary studies. Mice infected with the same dose of microbial culture but not treated served as controls.
The preparations were dissolved in an isotonic sodium chloride solution and substance 1a or Lincomycin was administered. 2 hours after infection, the drugs were administered orally daily at doses of 10 to 100 mg/kg, 2 times a day.
The death of mice was taken into account daily for 7 days.

[18] = test system: methicillin- and vancomycin-resistant strains of Staphylococcus aureus and Streptococcus spp; settings: literature statement; cited from earlier work
[19] = test system: S. aureus SA77; test: MIC, S. aureus strains with multiple resistance; format: cell-based, Staphylococcus aureus; settings: SA77, VRSA strain
Procedure: as §1
(§4) The study of the effect of Compound 1a on strains with multiple resistance to existing antibiotics was performed on fresh clinical isolates of strains: S. aureus VT-V-18, S. aureus VT-E-25 S. aureus VT-A-199 and S. aureus VT-P-82, as well as S. aureus strain American Type Culture Collection (Rockville, Md.) and strains S. aureus SA77 and S. aureus SA85,

[20] = test system: S. aureus SA85; test: MIC, S. aureus strains with multiple resistance; format: cell-based, Staphylococcus aureus; settings: SA85, VRSA strain
Procedure: as §1, §4

[21] = test system: S. aureus VT-A-199; test: MIC, S. aureus strains with multiple resistance; format: cell-based, Staphylococcus aureus; settings: VT-A-199, MRSA strain, clinical isolate
Procedure: as §1, §4

[22] = test system: S. aureus VT-E-25; test: MIC, S. aureus strains with multiple resistance; format: cell-based, Staphylococcus aureus; settings: VT-E-25, MRSA strain, clinical isolate
Procedure: as §1, §4

[23] = test system: S. aureus VT-P-82; test: MIC, S. aureus strains with multiple resistance; format: cell-based, Staphylococcus aureus; settings: VT-P-82, MRSA strain, clinical isolate
Procedure: as §1, §4

[24] = test system: S. aureus VT-V-18; test: MIC, S. aureus strains with multiple resistance; format: cell-based, Staphylococcus aureus; settings: VT-V-18, MRSA strain, clinical isolate
Procedure: as §1, §4

[25] = test system: various strains of S. aureus; test: Effects on various strains of S. aureus (MRSA, VRSA, MSSA), overall; format: cell-based, Staphylococcus aureus; settings: S. aureus strains of Table 3
Procedure: as §1, §4

[26] = Haemophilus influenzae, read-out: MIC
[27] = 10 mg/kg orally 2 times a day, day 2
[28] = 10 mg/kg orally 2 times a day, day 4
[29] = 20 mg/kg orally 2 times a day, day 3
[30] = 20 mg/kg orally 2 times a day, day 4

SMILES: O=C([O-])CCC(=O)[O-].O=c1[nH]c(=O)c2cc3cc(Br)cc(Br)c3[o+]c2[nH]1.O=c1[nH]c(=O)c2cc3cc(Br)cc(Br)c3[o+]c2[nH]1 [Compound 1b, 7,9-dibromo-2,4-dioxo-1,2,3,4-tetrahydrochromeno[2,3-d]-pyrimidinium-10 succinate]
MIC ([1]; S. aureus ATCC 29213, Table 1): 1.0 µg/mL
MIC [2]: 2.0 µg/mL
MIC [3]: 2.0 µg/mL
MIC [4]: 2.0 µg/mL
MIC [5]: 4.0 µg/mL
MIC [6]: 4.0 µg/mL
MIC [7]: 2.0 µg/mL
MIC [8]: 2.0 µg/mL
MIC [9]: 30.0 µg/mL
MIC [10]: 20.0 µg/mL
MIC [11]: 20.0 µg/mL
MIC [12]: 20.0 µg/mL

MIC [13, 26]: 2 µg/mL
SMILES: CN(C)[C@@H]1C(O)=C(C(N)=O)C(=O)[C@@]2(O)C(O)=C3C(=O)c4c(O)cccc4[C@@](C)(O)[C@H]3C[C@@H]12 [Tetracycline]

SMILES: CC1(C)S[C@@H]2[C@H](NC(=O)COc3ccccc3)C(=O)N2[C@H]1C(=O)O [Phenoxymethylpenicillin, reference compound]
Eradication, % ([14]; day 4, enterally twice a day): 4.11%
Eradication, % ([14]; day 8): 9.59%
Eradication, % ([14]; day 14): 13.70%
Eradication, Number of patients ([14]; day 4, enterally twice a day): 3
Eradication, Number of patients ([14]; day 8): 7
Eradication, Number of patients ([14]; day 14): 10
Eradication, % ([15]; day 4): 10.14%
Eradication, % ([15]; day 8): 11.59%
Eradication, % ([15]; day 14): 13.04%
Eradication, Number of patients ([15]; day 4): 7
Eradication, Number of patients ([15]; day 8): 8
Eradication, Number of patients ([15]; day 14): 9

SMILES: CCC[C@@H]1C[C@@H](C(=O)N[C@@H]([C@H]2O[C@H](SC)[C@H](O)[C@@H](O)[C@H]2O)[C@@H](C)O)N(C)C1 [Lincomycin]
change of the number of CFUs in biofilms ([16]; 24 hours): does not change the number of CFUs
Number of CFU [16]: 2.0 ± 1.0 × 10^8 CFU
Mice death [17, 27]: 2
Mice death [17, 28]: 1
Mices death ([17]; 10 mg/kg orally 2 times a day, fifth day, head printed 1): 2
Mices death ([17]; 10 mg/kg orally 2 times a day, sixth day column, head printed 2): 1
Mice death [17, 29]: 1
Mice death [17, 30]: 1
Mices death ([17]; 20 mg/kg orally 2 times a day, fifth day, head printed 1): 3
Mices death ([17]; 50 mg/kg orally 2 times a day, day 3): 1
Mices death ([17]; 50 mg/kg orally 2 times a day, day 4): 1
Mices death ([17]; 50 mg/kg orally 2 times a day, fifth day, head printed 1): 2
effect on MRSA and VRSA strains [18]: no effect

MIC [13, 26]: 0.05 µg/mL
SMILES: C[C@H]1COc2c(N3CCN(C)CC3)c(F)cc3c(=O)c(C(=O)O)cn1c23 [Levofloxacin]

SMILES: CC(=O)[O-].O=c1[nH]c(=O)c2cc3cc(Br)cc(Br)c3[o+]c2[nH]1 [Compound 1a, 7,9-dibromo-2,4-dioxo-1,2,3,4-tetrahydrochromeno[2,3-d]-pyrimidinium-10 acetate]
MIC ([1]; ATCC 29213, strain MSSA, Table 3): 0.5 µg/mL
MIC ([1]; S. aureus ATCC 29213, Table 1): 0.5 µg/mL
MIC [2]: 0.1 µg/mL
MIC [3]: 0.1 µg/mL
MIC [4]: 1.0 µg/mL
MIC [5]: 1.0 µg/mL
MIC [6]: 1.0 µg/mL
MIC [7]: 0.5 µg/mL
MIC [8]: 1.0 µg/mL
MIC [9]: 20.0 µg/mL
MIC [10]: 10.0 µg/mL
MIC [11]: 10.0 µg/mL
MIC [12]: 10.0 µg/mL
MIC [19]: 0.5 µg/mL
MIC [20]: 1.0 µg/mL
MIC [21]: 1.0 µg/mL
MIC [22]: 1.0 µg/mL
MIC [23]: 2.0 µg/mL
MIC [24]: 0.5 µg/mL
Resistance [25]: Not detected
efficacy on methicillin/vancomycin-resistant versus susceptible strains [25]: did not differ
reduction of the number of bacteria capable of growth in biofilms ([16]; 24 hours): 1000 times
Number of CFU [16]: 4.0 ± 1.0 × 10^5 CFU
Mice death [17, 27]: 1
Mice death [17, 28]: 1
Mice death ([17]; 10 mg/kg orally 2 times a day, day 5): 2
Mice death ([17]; 10 mg/kg orally 2 times a day, day 6): 1
Mice death [17, 29]: 1
Mice death [17, 30]: 1
Mice death ([17]; 20 mg/kg orally 2 times a day, day 5): 2
Eradication, % ([14]; day 4, enterally twice a day): 85.14%
Eradication, % ([14]; day 8): 91.89%
Eradication, % ([14]; day 14): 94.59%
Eradication, Number of patients ([14]; day 4, enterally twice a day): 63
Eradication, Number of patients ([14]; day 8): 68
Eradication, Number of patients ([14]; day 14): 70
Eradication, % ([15]; day 4): 94.37%
Eradication, % ([15]; day 8): 95.77%
Eradication, % ([15]; day 14): 95.77%
Eradication, Number of patients ([15]; day 4): 67
Eradication, Number of patients ([15]; day 8): 68
Eradication, Number of patients ([15]; day 14): 68
MIC [13]: 10.0 µg/mL
